Assay [1] has as its system leukotriene synthesis in homogenized rat basophil leukemia cells. The assay is described as follows: cell free leukotriene biosynthesis system (homogenized rat basophil leukemia cells, radioimmunoassay). Format: biochemical. The conditions noted are these: synthesis initiated by arachidonate; drug preincubated five minutes; read-out: IC50, leukotriene synthesis inhibition. How it is done:
This test utilizes the cell free leukotriene biosynthesis system of M. Steinhoff et al. Biochim. Acta. 68, 28 (1980), incorporated herein by reference, which consists of homogenized rat basophil leukemia cells. Leukotriene synthesis is initiated by the addition of arachidonate. Solutions are centrifuged and supernatants assayed using a radioimmunoassay developed as described by Aeringhaus et al. FEBS Letter 146, 111-114. Drugs are dissolved in ethanol or dimethyl sulfoxide and then preincubated for five minutes. Phenidone is used as a positive control.

The subject of assay [2] is bronchoconstriction in sensitized guinea pigs. The assay is described as follows: antigen-induced bronchoconstriction in sensitized guinea pigs (frequency of notching). Format: in vivo, guinea pig. To be noted: Cavia porcellus, male Hartley guinea pigs pretreated with antihistamine, read-out: ED40, inhibition of bronchoconstriction. The method, then: Preferably, bronchoconstriction in sensitized guinea pigs is measured upon antigen challenge. This test is described in broad terms by Piechuta, et al., Immunology, 38, 385 (1979) and more specifically by Hammerbeck and Swingle, Int. Archs. Allergy Appl. Immun. 74, 84-90 (1984), both references being incorporated herein by reference. It was used in a modified form as follows: Male Hartley guinea pigs (250-600 g) which were pretreated with an antihistamine, e.g., chlorpheniramine and then dosed intraperitoneally with a compound of the invention at a level of about 1 to 40 mg/kg 15 minutes prior to challenge or orally at the same dose 30 minutes prior to challenge were aerosol challenged with either water or ovalbumim at a concentration of 10 mg per ml. The animals were placed under an inverted dessicator jar (18×14 cm) with a constant flow of air coming into the chamber from a compressed-air source to prevent hypoxia. Air flow leaving the chamber and fluctuations due to respiration were monitored through a separate outlet with a Fleisch No. 0000 pneumotachograph (available from Beckman Instruments, Inc., Schiller Park, Ill.) coupled to a Beckman Type R dynograph (available from Beckman Instruments, Inc.). Aerosolization through a third outlet was made via a No. 4 DeVilbiss nebulizer (available from the DeVilbiss Company, Somerset, PA) for 90 seconds at 150 mm Hg. […]

pIC50: −log10 of the molar value. Read-outs that look alike come from different tables or passages of the source. Some results are limits rather than exact numbers.

The values below come from patent US4677113A, “Di-t-butylphenols substituted by a thenoyl group” (Riker Laboratories, Inc., priority 1986, dated 1987).

For orientation: pIC50 means the IC50 on a negative log10 scale, so that one unit is a factor of ten.

`CC(C)(C)c1cc(C(=O)c2ccc(C(=O)O)s2)cc(C(C)(C)C)c1O` [5-(3',5'-di-t-butyl-4'-hydroxybenzoyl)thiophene-2-carboxylic acid]: in assay [1], the pIC50 was 4.82. The ED40 in assay [2] (ip, 0.25 h, administered intraperitoneally 15 minutes prior to ovalbumin aerosol challenge) is below 10 mg/kg; in assay [2] (po, 0.5 h, administered orally 30 minutes prior to ovalbumin aerosol challenge), below 25 mg/kg.
